Key:
[1] = test system: reelin mRNA (RELN), a stellate cell target; test: Reelin (RELN) mRNA knock-down in liver after IV administration of siRNA LNP (QuantiGene, RELN:GAPD mRNA ratio); type: in vivo, Balb/C mice; settings: for reelin mRNA knock-down, activity at high dose: 1 mg/kg dose and greater
Experimental: The lipid solution contained 4 components: a PEG-conjugated lipid, an ionizable lipid, cholesterol, and a phospholipid (e.g., DSPC). Lipid stocks were prepared using the lipid identities and molar ratios as described. The siRNA was diluted in 100 mM acetate, pH 4 buffer to prepare lipid nanoparticles (LNP) at a total lipid to siRNA weight ratio of approximately 10:1 to 20:1. Equal volumes of the lipid and nucleic acid solutions were blended at a flow rate of 400 mL/min through a T-connector, and diluted into PBS, pH 7.4. The ethanol was then removed and the external buffer replaced with Tris/NaCl buffer by dialysis. Following dialysis, the formulations were concentrated using VivaSpin concentrator units (MWCO 100,000) and filtered through a 0.2 µm pore sterile filter. Nucleic acid concentration was determined by the RiboGreen assay. Particle size and polydispersity were determined using a Malvern Nano Series Zetasizer.
Generally, the LNP formulations were injected intravenously at 0.025 mg/kg to female Balb/C mice (5-8 weeks old) to measure activity of the HSC-LNP. Just prior to injection, the siRNA LNP stocks were filtered and diluted down to the required dosing concentration. […] Half the left lateral lobe of the liver was collected into 1.5 mL RNALater and stored at 2-8° C. overnight. The next day, an approximately 20-25 mg piece of liver was homogenized and the liver lysate used in a QuantiGene Assay, testing for relative levels of mouse target mRNA and GAPDH expression. Data from each animal was normalized to the liver weight used in the assay, and then relative to the GAPDH signal; data is reported as the average % knockdown of each group (where the PBS control group is 100% gene expression, 0% knockdown).

[2] = Tolerability assessment: serum liver enzyme levels (ALT/AST) after IV administration of LNP; type: in vivo, Balb/C mice; settings: FIG. 4; 24 hours following IV administration of LNP; 0.03, 1, 3 mg/kg; relative to comparator lipid
Experimental: Generally, the LNP formulations were injected intravenously at ~0.03 to 3 mg/kg to female Balb/C mice (5-8 weeks old) to assess tolerability of the HSC-LNP. Just prior to injection, the siRNA LNP stocks were filtered and diluted down to the required dosing concentration. At 2 h post-treatment, blood was collected via tail nicks and processed to plasma (for cytokine analysis by ELISA). At the terminal timepoint (24 h post-dose), blood was collected by cardiac puncture (target ≥ 800 µL) and sent to IDEXX for CRES 15 panel analysis (CBC/Diff & Clin Chem analysis). Briefly, blood (~300 uL) was collected into EDTA microtainer tubes, inverted 10x to mix the K2EDTA whole blood sample, and immediately stored at 4° C. to await same-day shipment to for hematology analysis. The remaining blood volume (~500 uL) was collected into serum separator tubes and inverted 5× to mix the SST sample, then allowed to clot for 1-1.5 h at room temp. The blood samples were centrifuged, and serum was collected for clinical chemistry analysis.

[3] = FIG. 3, 24 hours following IV administration of LNP

SMILES | reelin mRNA knock-down, activity at high dose [1, 3] | liver enzyme levels (ALT/AST) in serum [2] | knock-down as indicated by the RELN:GAPD mRNA ratio ([1]; FIG. 1, 0.1 mg/kg, versus comparator lipid and PBS) | reelin mRNA knock-down, potency relative to comparator lipid ([1]; FIG. 2, 48 hours following IV administration of LNP, Balb/C mice (n=4)) | reelin mRNA knock-down, potency relative to comparator lipid ([1]; FIG. 3, 24 hours following IV administration of LNP, low dose of 0.03 mg/kg) | potency relative to comparator lipid, as restated in the tolerability figure ([1]; FIG. 4 legend, no dose stated)
CCCCC/C=C\CCCC(CCC/C=C\CCCCC)C(CCC/C=C\CCCCC)OC(=O)CCCCCN(C)C (stereo not shown) [compound 100, reference compound] | Saturating activity | – | – | – | – | –
CCCCC/C=C\CCCC(=O)OC(CCC/C=C\CCCCC)C(CCC/C=C\CCCCC)OC(=O)CCCCCN(C)C (stereo not shown) [representative lipid of the invention] | Saturating activity | slightly higher liver enzyme levels relative to the comparator lipid | excellent knock-down | equivalent potency to a comparator lipid at 4-fold lower dose | significantly more potent than the comparator lipid | significantly more potent
